In US9801381B2, “Form of rimsulfuron, a process for its preparation and use of the same” (ROTAM AGROCHEM INTERNATIONAL COMPANY LIMITED, priority 2015, dated 2017):
Where two headings read alike, the source gives them in different places.

How the values were obtained:
[1] = Cleanout test (rimsulfuron residue in polyethylene bottles after rinsing, extracted with acetonitrile); format: physicochemical; conditions: for Cleanout rating, % (concentration of rimsulfuron herbicide in the acetonitrile solution): dispersed in tap water, stood overnight, lower rating = more effective cleanout
Procedure: The cleanout test was conducted by dispersing in water a sample to produce a concentration that is normally used when applying the herbicide: 25% rimsulfuron. The sample was added to tap water (300 mL) in a 400 mL beaker and magnetically stirred for 2 minutes. The mixture was then stirred for 2 minutes, whereupon the resulting dispersion was dispensed in three 100 mL aliquots to 4-oz (118 mL) polyethylene bottles. The bottles were capped, inverted twice and allowed to stand overnight.
After standing overnight, each individual bottle was inverted twice and the liquid contents were then poured out. Tap water (10 mL) was added and the bottle was inverted until all sediment was re-suspended, whereupon the contents were poured out. Tap water (100 mL) was added and the bottle was inverted twice and then allowed to stand undisturbed for 10 minutes. The bottle was inverted twice more and the contents were poured out. Acetonitrile (10 mL) was added to the bottle to extract any remaining material. The acetonitrile solution was analyzed by reversed-phase liquid chromatography with UV detection. The cleanout rating (the concentration of rimsulfuron herbicide in the acetonitrile solution) is reported in % in Table 6 below.

[2] = format: physicochemical; conditions: pH 7 buffer, test temperature e.g. 20° C.
[3] = format: physicochemical
Procedure: A stock pH 7 buffer solution was prepared by adding aqueous sodium hydroxide solution (0.1 M, 145 mL) to aqueous potassium dihydrogen phosphate solution (0.1 M, 250 mL), and then adding sufficient distilled water to adjust the final volume to 500 mL. At least 1 time and up to about 5 times the amount of rimsulfruon needed for saturation was added to a mixing vessel containing stock buffer solution at the test temperature (e.g., 20° C.). The mixture was magnetically stirred in the dark while being maintained at the test temperature. Samples were periodically removed for analysis. The samples were centrifuged using a high speed, temperature-controlled centrifuge at the test temperature for about 20 minutes at ≧12000 G to remove suspended particles. An aliquot of each supernatant was taken for analysis. The concentration of rimsulfuron in the supernatant was determined by a high pressure liquid chromatography (HPLC) with a reversed phase chromatography column and UV detection. The method should include development of best-fit calibration curves based on at least three standards using linear regression analysis Samples were successively withdrawn from the mixing vessel and analyzed until three successive samples show little or no variation in concentration. The test is preferably replicated to ensure accuracy.

[4] = OD formulation, original concentration 40%
[5] = SG formulation, original concentration 25%
[6] = WG formulation, original concentration 25%

SMILES | Cleanout rating, % (concentration of rimsulfuron herbicide in the acetonitrile solution) ([1]; OD formulation) [%] | Cleanout rating, % (concentration of rimsulfuron herbicide in the acetonitrile solution) ([1]; SG formulation) [%] | Cleanout rating, % (concentration of rimsulfuron herbicide in the acetonitrile solution) ([1]; WG formulation) [%] | Concentration measured by HPLC after treatment, % [2, 4] [%] | Concentration measured by HPLC after treatment, % [2, 5] [%] | Concentration measured by HPLC after treatment, % [2, 6] [%] | Cleanout properties compared with the known amorphous rimsulfuron product (in words) ([1]; summary of Table 6) | Solubility compared with amorphous rimsulfuron (in words) [3]
CCS(=O)(=O)c1cccnc1S(=O)(=O)NC(=O)Nc1nc(OC)cc(OC)n1 [Amorphous Rimsulfuron, prepared in Example 1] [1-(4,6-dimethoxypyrimidin-2-yl)-3-(3-ethylsulfonyl-2-pyridylsulfonyl)urea, reference compound] | 26 | 10 | 13 | 14 | 15 | 12 | – | –
CCS(=O)(=O)c1cccnc1S(=O)(=O)NC(=O)Nc1nc(OC)cc(OC)n1 [Rimsulfuron, crystal form A, 98%, prepared in Example 2] [1-(4,6-dimethoxypyrimidin-2-yl)-3-(3-ethylsulfonyl-2-pyridylsulfonyl)urea] | 5 | 0.1 | 2 | 35 | 24.9 | 23 | markedly superior cleanout properties | significant increase in its solubility
